#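 These data come from cells grown in 96-well plates and exposed to compound for 48 hours at five concentrations. GI50 is the concentration that inhibits growth by half. At the TGI there is no net growth.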
# Legend:
# Assay in all cases: NCI tumour cell line growth inhibition, 48 h
# OVCAR-3 ovarian = test system: OVCAR-3 ovarian
# OVCAR-8 ovarian = test system: OVCAR-8 ovarian
# 786-0 renal = test system: 786-0 renal
# A549 NSCLC = test system: A549 NSCLC
# SNB-75 CNS = test system: SNB-75 CNS
# SF-268 CNS = test system: SF-268 CNS
# CCRF-CEM leukemia = test system: CCRF-CEM leukemia
# NCI-H226 lung = test system: NCI-H226 lung
# PC-3 prostate = test system: PC-3 prostate
# DU-145 prostate = test system: DU-145 prostate
SMILES,TGI (OVCAR-3 ovarian) [µM],TGI (OVCAR-8 ovarian) [µM],TGI (786-0 renal) [µM],TGI (A549 NSCLC) [µM],TGI (SNB-75 CNS) [µM],TGI (SF-268 CNS) [µM],TGI (CCRF-CEM leukemia) [µM],TGI (NCI-H226 lung) [µM],GI50 (OVCAR-3 ovarian) [µM],GI50 (OVCAR-8 ovarian) [µM],GI50 (786-0 renal) [µM],GI50 (PC-3 prostate) [µM],TGI (PC-3 prostate) [µM],GI50 (A549 NSCLC) [µM],GI50 (SNB-75 CNS) [µM],GI50 (SF-268 CNS) [µM],GI50 (CCRF-CEM leukemia) [µM],GI50 (NCI-H226 lung) [µM],GI50 (DU-145 prostate) [µM],TGI (DU-145 prostate) [µM]
Cc1cc(O)c2c(c1)C(O)(c1ccc3c(c1O)C(=O)c1c(O)cc(C)cc1C3(O)C1OC(CO)C(O)C(O)C1O)c1cccc(O)c1C2=O (configuration not stated),22.6,34,29.2,32.2,27.5,36,25.8,,,,,,,,,,,,,
O=C(c1ccccc1)c1c(CC(O)c2cccnc2)n(C(=O)c2ccccc2)c2ccccc12 (configuration not stated),32.9,> 100,99.4,> 100,32.4,59.4,63.4,24.6,,,,,,,,,,,,
Cc1cc(N(CCNc2ccnc3cc(Cl)ccc23)Cc2ccc3c(c2)OCO3)nc(N2CCN(C)CC2)n1,10.9,11.2,3.29,12.8,3.04,7.89,9.31,36.8,2.73,3.18,1.59,4.59,17.7,3.51,1.44,2.42,2.98,17.7,,
CC(C)N(C(=O)C12C3C4C1C1C2C3C41C(O)C(C)(C)C)C(C)C (configuration not stated),> 50,> 50,> 50,> 50,> 50,> 50,> 50,,,,,,,,,,,,,
C#C[C@]1(O)CC[C@H]2[C@@H]3CC=C4c5nc(Nc6ccccn6)sc5CC[C@]4(C)[C@H]3CC[C@@]21C,3.29,7.89,1.69,11.1,,6.87,4.18,3.91,1.43,1.77,0.389,0.489,3.99,1.94,,1.85,0.482,1.51,2.16,9.16
Cc1cc([N+](=O)[O-])c(C)c2c1[nH]c1ccc(/C(CCC3CCCC3)=N\N)cc12,36.9,75,28,34.2,46.7,37.5,44.9,41.5,,,,,,,,,,,,
Cc1c(C)c2cc3c(=O)ccoc3c(C)c2oc1=O,> 100,> 100,> 100,> 100,85.2,> 100,> 100,> 100,,,,,,,,,,,,
O=C1[C@@H](c2ccc(Cl)cc2)[C@H]2CC=C[C@H]2N1O,> 100,> 100,> 100,> 100,> 100,> 100,> 100,> 100,,,,,,,,,,,,
C=C(C)C1CC2C(C)=C(OC(C)=O)C1n1c(=O)c3cc4ccccc4cc3c(=O)n12 (configuration not stated),> 100,> 100,> 100,> 100,> 85.5,> 100,,> 100,,,,,,,,,,,,
CC[O-].CC[O-].O=C1C(=C([O-])c2ccccc2)C(=O)c2ccccc21.O=C1C(=C([O-])c2ccccc2)C(=O)c2ccccc21.[Ti+4],> 100,> 100,> 100,> 100,> 100,> 10,> 100,> 100,> 100,92.7,> 100,,,> 100,> 100,> 10,> 100,> 100,,
O=[N+]([O-])c1ccc(N=Nc2c(O)[nH]c3ccc([N+](=O)[O-])cc23)cc1,42,35,17,32.4,> 100,38,> 100,7,,,,,,,,,,,,
Cc1cc(C)c2c(c1)CN1CN2Cc2cc(C)cc(C)c21,28.3,39.5,34.7,> 100,24.8,> 100,68.2,61.5,,,,,,,,,,,,
Cc1cc(Cl)ccc1NC(=O)C(=O)Cc1nc2ccc(C(=O)c3ccccc3)cc2[nH]c1=O,> 100,> 100,> 100,> 100,> 100,> 100,> 100,> 100,,,,,,,,,,,,
COC(=O)C1=CCON(c2ccccc2)C1c1ccccc1 (configuration not stated),> 100,,> 100,> 100,> 100,> 100,> 100,> 100,,,,,,,,,,,,
COc1ccc(OC)c(-c2cc(-c3ccccc3)nn2-c2ccc(S(=O)(=O)NC(C)=O)cc2)c1,9.55,62.1,23.4,> 100,,32.2,6.55,24.8,2.82,5.99,10.8,6.08,20.6,22.9,,10.1,2.13,11.7,17.9,36.9
CC(=O)c1cccc(N(/C=C/C(=O)C(F)(F)F)CC(=O)c2ccc(Cl)cc2)c1,> 100,> 100,> 100,> 100,,> 100,> 100,> 100,> 100,> 100,> 100,> 100,> 100,> 100,,> 100,> 100,> 100,> 100,> 100
CC(C)(C)OC(=O)NCC(C#N)CNC(=O)OC(C)(C)C,> 100,> 100,> 100,> 100,,> 100,> 100,> 100,,,,,> 100,,,,,,,> 100
C/C(=N/N(C=O)C[n+]1ccccc1)C(CN(CC(C)C)CC(C)C)C(=O)Nc1ccc(C)cc1C (configuration not stated),> 100,> 100,> 100,> 100,,> 100,> 100,,,,,,,,,,,,,

# Source: PubChem BioAssay (NCI)
